The results in this text go back to patent publication US11192900B2, “Substituted 1,6-dihydropyridinones and 1,2-dihydroisoquinolinones as bet inhibitors” (NUVATION BIO INC., priority 2018, dated 2021).

In the test the target is BRD4-2 (Homo sapiens (Human), UniProt O60885). Put plainly: Bromodomain and Extraterminal Domain (BET) Binding Assay. The settings on record: Table 3; read-out: BRD4-2 IC50. On the procedure: The bromodomain binding assays were performed by Reaction Biology Corp., Malvern, Pa., USA (www.reactionbiology.com). The BET binding assays were conducted in 384 well microplates in assay buffer (50 mM HEPES-HCl, pH 7.5, 100 mM NaCl, 1 mg/ml BSA, 0.05% CHAPS, and 0.5% DMSO) with compounds added as DMSO stocks at a single concentration or with 10-point dose response titrations. BET protein or assay buffer were delivered to the appropriate wells of the microplate. Test compound was then delivered by acoustic technology via a Labcyte Echo550 liquid handler. The microplate was centrifuged for 5 min and pre-incubated for 30 min at RT with gentle shaking. The ligand (histone H4 peptide (1-21) K5/8/12/16Ac-biotin) was delivered and the microplate was again centrifuged for 5 min and allowed to incubate for 30 min at RT with gentle shaking. Donor beads were then added in the absence of light and the microplate was centrifuged and gently shaken. After 5 min, acceptor beads were added in the absence of light and the microplate was centrifuged and gently shakenin the dark for 60 min. The microplate was read using a Perkin Elmer EnSpire Alpha plate reader (λEx/λEm=680/520-620 nm). Percent inhibition was calculated relative to positive and negative controls on a per plate basis. For titration experiments, IC50 values were determined by fitting the percent inhibition versus compound concentration.
Turning to `C=CS(=O)(=O)Nc1ccc(Oc2ccc(C)cc2)c(-c2cc(NC)c(=O)n(C)c2)c1` [Compound 4, N-(3-(1-methyl-5-(methylamino)-6-oxo-1,6-dihydropyridin-3-yl)-4-(p-tolyloxy)phenyl)ethenesulfonamide], the half-maximal inhibitory concentration (IC50) was 22 nM. The same measure for `C=CC(=O)Nc1ccc(Oc2ccc(OC)cc2)c(-c2cc(NC)c(=O)n(C)c2)c1` [Compound 5, N-(4-(4-methoxyphenoxy)-3-(1-methyl-5-(methylamino)-6-oxo-1,6-dihydropyridin-3-yl)phenyl)acrylamide]: 142 nM; for `C=CC(=O)Nc1ccc(Oc2ccc(C)cc2)c(-c2cc(NC)c(=O)n(C)c2)c1` [Compound 6, N-(3-(1-methyl-5-(methylamino)-6-oxo-1,6-dihydropyridin-3-yl)-4-(p-tolyloxy)phenyl)acrylamide]: 120 nM; for `C=CS(=O)(=O)Nc1ccc(Oc2ccc(F)cc2)c(-c2cc(NC)c(=O)n(C)c2)c1` [Compound 7, N-(4-(4-fluorophenoxy)-3-(1-methyl-5-(methylamino)-6-oxo-1,6-dihydropyridin-3-yl)phenyl)ethenesulfonamide]: 24 nM. For `C=CS(=O)(=O)Nc1ccc(Oc2ccc(OC)cc2)c(-c2cc(NC)c(=O)n(C)c2)c1` [Compound 8, N-(4-(4-methoxyphenoxy)-3-(1-methyl-5-(methylamino)-6-oxo-1,6-dihydropyridin-3-yl)phenyl)ethenesulfonamide] the value was 17 nM; for `C=CC(=O)Nc1ccc(Oc2ccc(F)cc2F)c(-c2cn(C)c(=O)c3ccccc23)c1` [Compound 9, N-(4-(2,4-difluorophenoxy)-3-(2-methyl-1-oxo-1,2-dihydroisoquinolin-4-yl)phenyl)acrylamide], 319 nM. `C=CS(=O)(=O)Nc1ccc(Oc2ccc(F)cc2F)c(-c2cn(C)c(=O)c3ccccc23)c1` [Compound 10, N-(4-(2,4-difluorophenoxy)-3-(2-methyl-1-oxo-1,2-dihydroisoquinolin-4-yl)phenyl)ethenesulfonamide]: the half-inhibitory concentration (IC50) was 56 nM. Consider `C=CS(=O)(=O)Nc1ccc(Oc2ccc(F)cc2)c(-c2cn(C)c(=O)c3ccccc23)c1` [Compound 11, N-(4-(4-fluorophenoxy)-3-(2-methyl-1-oxo-1,2-dihydroisoquinolin-4-yl)phenyl)ethenesulfonamide], for which the half-maximal inhibitory concentration (IC50) turned out to be 14 nM. The same measure for `C=CS(=O)(=O)Nc1ccc(Oc2ccc(C)cc2)c(-c2cn(C)c(=O)c3ccccc23)c1` [Compound 13, N-(3-(2-methyl-1-oxo-1,2-dihydroisoquinolin-4-yl)-4-(p-tolyloxy)phenyl)ethenesulfonamide]: 24 nM; for `C=CS(=O)(=O)Nc1ccc(Oc2ccc(F)cc2F)c(-c2cn(C)c(=O)c3c2CCNC3)c1` [Compound 14, N-(4-(2,4-difluorophenoxy)-3-(2-methyl-1-oxo-1,2,5,6,7,8-hexahydro-2,7-naphthyridin-4-yl)phenyl)ethenesulfonamide]: over 10000 nM. The same measure for `C=CS(=O)(=O)N(C)c1ccc(Oc2ccc(F)cc2F)c(-c2cc(NC)c(=O)n(C)c2)c1` [Compound 15, N-(4-(2,4-difluorophenoxy)-3-(1-methyl-5-(methylamino)-6-oxo-1,6-dihydropyridin-3-yl)phenyl)-N-methylethenesulfonamide]: 34 nM; for `C=CS(=O)(=O)Nc1ccc(Oc2ccc(F)cc2F)c(-c2c[nH]c(=O)c3ccccc23)c1` [Compound 18, N-(4-(2,4-difluorophenoxy)-3-(1-oxo-1,2-dihydroisoquinolin-4-yl)phenyl)ethenesulfonamide]: over 10000 nM. The same measure for `C=CS(=O)(=O)Nc1ccc(Oc2ccc(F)cc2F)c(-c2cnc(=O)n(C)c2)c1` [Compound 19, N-(4-(2,4-difluorophenoxy)-3-(1-methyl-2-oxo-1,2-dihydropyrimidin-5-yl)phenyl)ethenesulfonamide]: 1450 nM. On to `C=CS(=O)(=O)Nc1ccc(OC)c(-c2cc(NC)c(=O)n(C)c2)c1` [Compound 20, N-(4-methoxy-3-(1-methyl-5-(methylamino)-6-oxo-1,6-dihydropyridin-3-yl)phenyl)ethenesulfonamide], for which the half-maximal inhibitory concentration (IC50) turned out to be 3860 nM. The same measure for `C=CS(=O)(=O)Nc1ccc(Nc2ccc(F)cc2F)c(-c2cc(NC)c(=O)n(C)c2)c1` [Compound 21, N-(4-(2,4-difluorophenylamino)-3-(1-methyl-5-(methylamino)-6-oxo-1,6-dihydropyridin-3-yl)phenyl)ethenesulfonamide]: 11 nM; for `C=CS(=O)(=O)Nc1ccc(Oc2ccc(F)cc2F)c(-c2c[nH]c(=O)c(NC)c2)c1` [Compound 22, N-(4-(2,4-difluorophenoxy)-3-(5-(methylamino)-6-oxo-1,6-dihydropyridin-3-yl)phenyl)ethenesulfonamide]: 3850 nM; for `C=CC(=O)Nc1cccc(Oc2ccc(F)cc2)c1-c1cc(NC)c(=O)n(C)c1` [Compound 23, N-(3-(4-fluorophenoxy)-2-(1-methyl-5-(methylamino)-6-oxo-1,6-dihydropyridin-3-yl)phenyl)acrylamide]: over 10000 nM.

Take `C=CC(=O)Nc1ccc(OC(C)C)c(-c2cc(NC)c(=O)n(C)c2)c1` [Compound 24, N-(4-isopropoxy-3-(1-methyl-5-(methylamino)-6-oxo-1,6-dihydropyridin-3-yl)phenyl)acrylamide]: the 50% inhibitory concentration (IC50) was determined as 779 nM. For `C=CC(=O)Nc1ccc(Oc2ccc(C)cc2)c(-c2cn(C)c(=O)c3ccccc23)c1` [Compound 25, N-(3-(2-methyl-1-oxo-1,2-dihydroisoquinolin-4-yl)-4-(p-tolyloxy)phenyl)acrylamide] the value was 264 nM; for `C=CC(=O)Nc1ccc(Oc2ccc(F)cc2)c(-c2cn(C)c(=O)c3ccccc23)c1` [Compound 26, N-(4-(4-fluorophenoxy)-3-(2-methyl-1-oxo-1,2-dihydroisoquinolin-4-yl)phenyl)acrylamide], 281 nM; for `C=CC(=O)Nc1ccc(OC(F)(F)F)c(-c2cn(C)c(=O)c3ccccc23)c1` [Compound 27, N-(3-(2-methyl-1-oxo-1,2-dihydroisoquinolin-4-yl)-4-(trifluoromethoxy)phenyl)acrylamide], 3250 nM. Take `C=CC(=O)Nc1ccc(Oc2ccc(F)cc2)c(-c2cn(C(C)C)c(=O)c3ccccc23)c1` [Compound 28, N-(4-(4-fluorophenoxy)-3-(2-isopropyl-1-oxo-1,2-dihydroisoquinolin-4-yl)phenyl)acrylamide]: the IC50 was found to be 17900 nM. For `C=CC(=O)Nc1ccc(Oc2ccc(Cl)cc2)c(-c2cn(C)c(=O)c3ccccc23)c1` [Compound 31, N-(4-(4-chlorophenoxy)-3-(2-methyl-1-oxo-1,2-dihydroisoquinolin-4-yl)phenyl)acrylamide] the value was 413 nM; for `C=CC(=O)Nc1ccc(Oc2ccc(Cl)c(F)c2)c(-c2cn(C)c(=O)c3ccccc23)c1` [Compound 32, N-(4-(4-chloro-3-fluorophenoxy)-3-(2-methyl-1-oxo-1,2-dihydroisoquinolin-4-yl)phenyl)acrylamide], 717 nM; for `C#CC(=O)Nc1ccc(Oc2ccc(F)cc2F)c(-c2cn(C)c(=O)c3ccccc23)c1` [Compound 74, N-(4-(2,4-difluorophenoxy)-3-(2-methyl-1-oxo-1,2-dihydroisoquinolin-4-yl)phenyl)propiolamide], 239 nM. With `C=CC(=O)Nc1ccc(Nc2ccc(F)cc2F)c(-c2cc(NC)c(=O)n(C)c2)c1` [Compound 288, N-(4-(2,4-difluorophenylamino)-3-(1-methyl-5-(methylamino)-6-oxo-1,6-dihydropyridin-3-yl)phenyl)acrylamide], the 50% inhibitory concentration (IC50) came to 889 nM. For `C=CC(=O)Nc1ccc(Nc2ccc(C)cc2)c(-c2cn(C)c(=O)c3ccccc23)c1` [Compound 309, N-(3-(2-methyl-1-oxo-1,2-dihydroisoquinolin-4-yl)-4-(p-tolylamino)phenyl) acrylamide], the IC50 was 2120 nM.

Consider `C=CC(=O)Nc1ccc(Nc2c(F)cccc2F)c(-c2cn(C)c(=O)c3ccccc23)c1` [Compound 319, N-(4-(2,6-difluorophenylamino)-3-(2-methyl-1-oxo-1,2-dihydroisoquinolin-4-yl)phenyl)acrylamide], for which the half-maximal inhibitory concentration (IC50) turned out to be 1800 nM. The same measure for `CC#CC(=O)Nc1ccc(Oc2ccc(F)cc2F)c(-c2cn(C)c(=O)c3ccccc23)c1` [Compound 393, N-(4-(2,4-difluorophenoxy)-3-(2-methyl-1-oxo-1,2-dihydroisoquinolin-4-yl)phenyl)but-2-ynamide]: 261 nM. The same measure for `C=CC(=O)N(C)c1ccc(Oc2ccc(F)cc2F)c(-c2cc(NC)c(=O)n(C)c2)c1` [Compound 394, N-(4-(2,4-difluorophenoxy)-3-(1-methyl-5-(methylamino)-6-oxo-1,6-dihydropyridin-3-yl)phenyl)-N-methylacrylamide]: 134 nM; for `C=CC(=O)N(C)c1ccc(Oc2ccc(F)cc2F)c(-c2cn(C)c(=O)c3ccccc23)c1` [Compound 396, N-(4-(2,4-difluorophenoxy)-3-(2-methyl-1-oxo-1,2-dihydroisoquinolin-4-yl)phenyl)-N-methylacrylamide]: 298 nM.

Turning to `C=CC(=O)Nc1ccc(Oc2ccc(F)cc2F)c(-c2nn(C)c(=O)cc2OC)c1` [Compound 403, N-(4-(2,4-difluorophenoxy)-3-(4-methoxy-1-methyl-6-oxo-1,6-dihydropyridazin-3-yl)phenyl)acrylamide], the IC50 worked out at 206 nM.

As usually defined, the IC50 is the concentration that gives 50% inhibition.
